Test results taken from patent publication US12583861B2, “Derivatives of imidazo[4,5-d]pyridazine, their preparation and their therapeutic application” (SANOFI, priority 2021, dated 2026).
Where a name gives a salt, the structure may show the parent alone.

Assays:
[1] = target: T1, human TLR7 (Homo sapiens, UniProt Q9NYK1); test: HEK-Blue hTLR7 reporter cell assay (SEAP, NF-kB/AP-1) for stimulation of human TLR7; format: cell-based; conditions: HEK-Blue hTLR7 cells; for activation at 20 µM: 24 h, at 20000 nM; for EC50: 24 h incubation, SEAP readout, read-out: TLR7_EC50
T1 construct: host or cells: HEK293 (HEK-Blue hTLR7)
T1 sequence (Q9NYK1 27-1049): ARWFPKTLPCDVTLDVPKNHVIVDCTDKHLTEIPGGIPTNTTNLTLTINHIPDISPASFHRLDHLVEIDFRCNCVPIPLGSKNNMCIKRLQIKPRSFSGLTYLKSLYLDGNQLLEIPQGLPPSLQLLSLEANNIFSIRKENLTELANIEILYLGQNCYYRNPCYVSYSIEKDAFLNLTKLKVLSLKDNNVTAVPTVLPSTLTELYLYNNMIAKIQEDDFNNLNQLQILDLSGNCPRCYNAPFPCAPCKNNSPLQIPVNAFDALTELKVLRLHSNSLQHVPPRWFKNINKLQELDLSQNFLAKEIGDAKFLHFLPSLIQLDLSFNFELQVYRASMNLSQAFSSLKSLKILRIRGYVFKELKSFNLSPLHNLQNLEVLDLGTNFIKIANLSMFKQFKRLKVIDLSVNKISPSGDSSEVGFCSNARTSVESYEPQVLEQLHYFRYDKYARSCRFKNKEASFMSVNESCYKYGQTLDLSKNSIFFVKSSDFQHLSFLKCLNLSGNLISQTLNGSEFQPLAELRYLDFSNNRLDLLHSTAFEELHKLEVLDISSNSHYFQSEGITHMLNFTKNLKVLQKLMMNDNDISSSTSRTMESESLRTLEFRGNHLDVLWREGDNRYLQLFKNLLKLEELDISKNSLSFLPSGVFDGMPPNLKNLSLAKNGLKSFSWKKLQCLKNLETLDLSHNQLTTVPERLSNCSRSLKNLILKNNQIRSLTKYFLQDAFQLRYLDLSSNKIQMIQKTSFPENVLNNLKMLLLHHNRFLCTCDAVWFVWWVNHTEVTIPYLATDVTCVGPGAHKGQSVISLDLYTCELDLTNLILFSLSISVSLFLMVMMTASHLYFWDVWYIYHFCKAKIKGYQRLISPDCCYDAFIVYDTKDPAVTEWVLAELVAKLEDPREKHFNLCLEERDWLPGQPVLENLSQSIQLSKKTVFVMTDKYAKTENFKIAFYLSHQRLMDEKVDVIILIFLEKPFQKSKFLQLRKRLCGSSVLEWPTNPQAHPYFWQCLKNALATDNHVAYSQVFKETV
How it was run: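 Activity expressed as EC50 for half-maximal SEAP induction. Compounds, serially diluted 3-fold from 20 to 0.01 μM, were incubated 24 h at 37 °C, 5% CO2 with HEK-Blue hTLR7 reporter cells (3.10E4/well, plated 18–24 h earlier); supernatant developed with QUANTI-Blue.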

[2] = target: T2, human TLR8 (Homo sapiens, UniProt Q9NR97); test: HEK-Blue hTLR8 reporter cell assay (SEAP, NF-kB/AP-1) for stimulation of human TLR8; format: cell-based; conditions: HEK-Blue hTLR8 cells; for activation at 20 µM: 24 h, at 20000 nM; for EC50: 24 h incubation, SEAP readout, read-out: TLR8_EC50
T2 construct: host or cells: HEK293 (HEK-Blue hTLR8)
T2 sequence (Q9NR97 27-1041): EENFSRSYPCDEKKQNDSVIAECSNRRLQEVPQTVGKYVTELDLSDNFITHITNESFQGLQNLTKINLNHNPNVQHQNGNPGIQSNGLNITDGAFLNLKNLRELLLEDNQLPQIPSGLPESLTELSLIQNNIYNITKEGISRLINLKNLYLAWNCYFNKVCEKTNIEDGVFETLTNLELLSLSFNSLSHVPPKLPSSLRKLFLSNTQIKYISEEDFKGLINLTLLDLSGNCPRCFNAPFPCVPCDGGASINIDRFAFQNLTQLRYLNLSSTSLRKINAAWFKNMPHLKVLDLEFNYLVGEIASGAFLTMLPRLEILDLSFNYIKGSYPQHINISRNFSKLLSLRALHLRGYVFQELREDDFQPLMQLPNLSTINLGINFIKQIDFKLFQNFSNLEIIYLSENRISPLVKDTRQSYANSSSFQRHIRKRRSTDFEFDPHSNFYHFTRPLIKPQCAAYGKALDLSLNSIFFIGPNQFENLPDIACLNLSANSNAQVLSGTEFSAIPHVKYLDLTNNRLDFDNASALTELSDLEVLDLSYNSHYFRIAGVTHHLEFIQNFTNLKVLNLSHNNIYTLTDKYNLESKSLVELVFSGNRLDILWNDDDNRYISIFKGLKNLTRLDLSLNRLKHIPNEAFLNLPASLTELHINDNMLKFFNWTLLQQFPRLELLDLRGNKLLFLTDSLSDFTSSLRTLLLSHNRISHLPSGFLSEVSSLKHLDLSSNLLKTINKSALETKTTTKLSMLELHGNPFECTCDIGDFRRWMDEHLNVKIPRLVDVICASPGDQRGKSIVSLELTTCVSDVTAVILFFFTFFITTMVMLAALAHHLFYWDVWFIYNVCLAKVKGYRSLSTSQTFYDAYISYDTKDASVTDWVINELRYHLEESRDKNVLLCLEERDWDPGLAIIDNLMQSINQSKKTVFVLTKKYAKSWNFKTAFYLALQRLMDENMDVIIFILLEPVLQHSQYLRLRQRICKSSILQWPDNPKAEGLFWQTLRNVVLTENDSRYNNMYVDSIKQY
How it was run: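 Stimulation is quantified as secreted alkaline phosphatase in supernatant using QUANTI-Blue™ substrate. Reporter HEK293 line co-transfected with hTLR8 and SEAP under an IFN-β minimal promoter with five NF-κB/AP-1 sites; 3.10E4 cells/well, 18 to 24 h pre-culture at 37° C. before compounds.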

Row | SMILES | activation at 20 µM [1] [%] | activation at 20 µM [2] [%] | EC50 [1] [nM] | EC50 [2] [nM]
1 | CCCCc1nc2c(N)nnc(C3CCNC3)c2n1Cc1ccc(CN)cc1 (centres unmarked) [Compound 145, 1-[[4-(aminomethyl)phenyl]methyl]-2-butyl-7-pyrrolidin-3-yl-imidazo[4,5-d]pyridazin-4-amine] | 2.2 | 11.7 |  | 
2 | CCCCc1nc2c(N)nnc(NC(C)C)c2[nH]1 [Compound 98, 2-butyl-N7-isopropyl-1H-imidazo[4,5-d]pyridazine-4,7-diamine] | 8 | 6 |  | 
3 | CCNCc1nc2c(N)nnc(OC(C)C)c2n1Cc1ccc(CN)cc1 [Compound 164, 3-[[4-(aminomethyl)phenyl]methyl]-2-(ethylaminomethyl)-4-isopropoxy-imidazo[4,5-d]pyridazin-7-amine] | 4.8 | 10.8 |  | 
4 | CCCCc1nc2c(N)nnc(C=C(C)C)c2n1Cc1ccc(OC)cc1 [Compound 60, 2-butyl-1-(4-methoxybenzyl)-7-(2-methylprop-1-en-1-yl)-1H-imidazo[4,5-d]pyridazin-4-amine] |  |  | 813 | > 20000
5 | CCCCc1nc2c(N)nnc(O)c2n1Cc1ccc(OC)cc1 [Compound 93, 4-amino-2-butyl-1-(4-methoxybenzyl)-1H-imidazo[4,5-d]pyridazin-7-ol] |  | 17 | > 20000 | 
6 | CCCCc1nc2c(N)nnc(CC(C)C)c2n1Cc1ccc(OC)cc1 [Compound 61, 2-butyl-7-isobutyl-1-(4-methoxybenzyl)-1H-imidazo[4,5-d]pyridazin-4-amine] |  |  | 1180 | > 20000
7 | CCCCc1nc2c(N)nnc(OC(C)C)c2n1CCCCN(C(C)=O)C1CCOCC1 [Compound 151, N-[4-(7-amino-2-butyl-4-isopropoxy-imidazo[4,5-d]pyridazin-3-yl)butyl]-N-tetrahydropyran-4-yl-acetamide] |  |  | 11200 | > 20000
8 | CCCCc1nc2c(N)nnc(OC(C)C)c2n1CC1CCNCC1 [Compound 165, 2-butyl-7-isopropoxy-1-(piperidin-4-ylmethyl)-1H-imidazo[4,5-d]pyridazin-4-amine] |  |  | 1570 | > 20000
9 | CCCCc1nc2c(N)nncc2n1Cc1ccc(OC)cc1 [Compound 95, 2-butyl-1-(4-methoxybenzyl)-1H-imidazo[4,5-d]pyridazin-4-amine] | 15 | 20.5 |  | 
10 | CCCCc1nc2c(N)nnc(OC(C)C)c2n1CCCCNC1CCOCC1 [Compound 150, 2-butyl-4-isopropoxy-3-[4-(tetrahydropyran-4-ylamino)butyl]imidazo[4,5-d]pyridazin-7-amine hydrochloride salt] |  |  | 2210 | 11400
11 | CCCCc1nc2c(N)nnc(OC3CC[S+]([O-])C3)c2n1Cc1ccc(OC)cc1 (single isomer, unassigned; isomer b) [Compound 69, 3-((4-amino-2-butyl-1-(4-methoxybenzyl)-1H-imidazo[4,5-d]pyridazin-7-yl)oxy)tetrahydrothiophene 1-oxide isomer B] |  |  | 6760 | > 20000
12 | CCCCc1nc2c(N)nnc(OC(C)C)c2n1C [Compound 86, 2-butyl-7-isopropoxy-1-methyl-1H-imidazo[4,5-d]pyridazin-4-amine] |  |  | 4400 | 6960

Further compounds by falling EC50 [1], results first:

Row | activation at 20 µM [1] [%] | activation at 20 µM [2] [%] | EC50 [1] [nM] | EC50 [2] [nM] | SMILES
13 |  |  | 326 | > 20000 | CCCCc1nc2c(N)nnc(OC(C)C)c2n1Cc1ccc(CNC(=O)CCOCCOC)cc1 [Compound 31, N-(4-((4-amino-2-butyl-7-isopropoxy-1H-imidazo[4,5-d]pyridazin-1-yl)methyl)benzyl)-3-(2-methoxyethoxy)propanamide]
14 |  |  | 263 | 1810 | CCCCCCC(=O)NCc1ccc(Cn2c(CCCC)nc3c(N)nnc(OC(C)C)c32)cc1 [Compound 84, N-(4-((4-amino-2-butyl-7-isopropoxy-1H-imidazo[4,5-d]pyridazin-1-yl)methyl)benzyl)heptanamide]
15 |  | 11 | 226 |  | CCCCc1nc2c(N)nnc(NCCCc3ccco3)c2n1Cc1ccc(OC)cc1 [Compound 94, 2-butyl-N7-(3-(furan-2-yl)propyl)-1-(4-methoxybenzyl)-1H-imidazo[4,5-d]pyridazine-4,7-diamine]
16 |  |  | 191 | > 20000 | CCCCc1nc2c(N)nnc(OC(C)C)c2n1CCCCCCN [Compound 146, 3-(6-aminohexyl)-2-butyl-4-isopropoxy-imidazo[4,5-d]pyridazin-7-amine dihydrochloride salt]
17 |  |  | 133 | 14400 | CCCCc1nc2c(N)nnc(OC(C)C)c2n1Cc1ccc(CNCCOCCOCCOC)cc1 [Compound 120, 1-(4-(5,8,11-trioxa-2-azadodecyl)benzyl)-2-butyl-7-isopropoxy-1H-imidazo[4,5-d]pyridazin-4-amine]
18 |  |  | 122 | 382 | CCCCc1nc2c(N)nnc(OC(C)C)c2n1Cc1cccc(CNC2CCC2)c1 [Compound 126, 2-butyl-1-(3-((cyclobutylamino)methyl)benzyl)-7-isopropoxy-1H-imidazo[4,5-d]pyridazin-4-amine dihydrochloride salt]
19 |  |  | 117 | > 20000 | CCCCCCCCCCC(=O)NCc1ccc(Cn2c(CCCC)nc3c(N)nnc(OC(C)C)c32)cc1 [Compound 29, N-(4-((4-amino-2-butyl-7-isopropoxy-1H-imidazo[4,5-d]pyridazin-1-yl)methyl)benzyl)undecanamide]
20 |  |  | 109 | > 20000 | CCCCc1nc2c(N)nnc(OC(C)C)c2n1C[C@H]1CC[C@H](N)CC1 [Compound 25]
21 |  |  | 22 | 546 | CCCCc1nc2c(N)nnc(OC(C)C)c2n1Cc1ccc(CNCCOC)cc1 [Compound 104, 2-butyl-7-isopropoxy-1-(4-(((2-methoxyethyl)amino)methyl)benzyl)-1H-imidazo[4,5-d]pyridazin-4-amine]
22 |  |  | 20.4 | 7720 | CCCCc1nc2c(N)nnc(OC(C)C)c2n1CCCCCCNC1CCOCC1 [Compound 147, 2-butyl-4-isopropoxy-3-[6-(tetrahydropyran-4-ylamino)hexyl]imidazo[4,5-d]pyridazin-7-amine; dihydrochloride]
